Patent US20200369728A1, “PEPTIDOMIMETIC MACROCYCLES AND USES THEREOF” (Aileron Therapeutics, Inc., priority 2015, published 2020)
Bridge positions count the residues as written; N and C are the ends. Square brackets hold non-standard residues; d marks the D form. Peptide text beside a SMILES is read from it. Phe(4-COOH) = N[C@@H](Cc1ccc(C(=O)O)cc1)C(=O)O; R8 = C=CCCCCCC[C@@](C)(N)C(=O)O; Cba = N[C@@H](CC1CCC1)C(=O)O; S5 = C=CCCC[C@](C)(N)C(=O)O; Nle = CCCC[C@H](N)C(=O)O

Assays:
RKO = assay: Cell viability assay (MTT), RKO; details: read-out: RKO EC50 (72 h)
Caspase 3 = Caspase 3 detection assay in SJSA1 cells; format: cell-based; details: SJSA1, 48 h, Caspase 3 activation over DMSO-treated cells
SJSA-1 cells = assay: Cell lysis by peptidomimetic macrocycles (LDH release); format: cell-based; details: SJSA-1, 1 h
In short: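 Membrane lysis measured as supernatant LDH after a 1 h, 37 °C exposure of SJSA-1 cells, held in RPMI with 1% FBS, to macrocycles at final 6.25-50 μM with 0.5% DMSO. Lytic references were 10 μM melittin and 1% Triton X-100; DMSO alone served as non-lytic control.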

SMILES | EC50 (RKO) [µM] | caspase 0.3 μM (Caspase 3) | caspase 3 μM (Caspase 3) | caspase 10 μM (Caspase 3) | caspase 30 μM (Caspase 3) | 6.25 μM % Lysed cells (1 h LDH) (SJSA-1 cells) [%] | 25 μM % Lysed cells (1 h LDH) (SJSA-1 cells) [%] | 50 μM % Lysed cells (1 h LDH) (SJSA-1 cells) [%] | caspase 1 μM (Caspase 3; 1 μM)
CCCC[C@H](NC(=O)[C@H](C)NC(=O)[C@H](C)NC(=O)[C@]1(C)CCCC=CCCCCCC[C@@](C)(NC(=O)[C@H](Cc2ccccc2)NC(=O)[C@@H](NC(=O)[C@H](CC(C)C)NC(C)=O)[C@@H](C)O)C(=O)N[C@@H](C)C(=O)N[C@@H](Cc2ccc(O)cc2)C(=O)N(C)[C@@H](Cc2c[nH]c3ccccc23)C(=O)N[C@@H](C)C(=O)N[C@@H](CCC(N)=O)C(=O)N[C@@H](CC(C)C)C(=O)N1)C(=O)N[C@@H](C)C(N)=O (single isomer, unassigned) [compound 386] | < 5 | – | – | – | – | – | – | – | –
CSCC[C@H](NC(=O)[C@H](C)NC(=O)[C@H](CO)NC(=O)[C@]1(C)CCCC=CCCCCCC[C@@](C)(NC(=O)[C@H](Cc2ccccc2)NC(=O)[C@@H](NC(=O)[C@H](CC(C)C)NC(C)=O)[C@@H](C)O)C(=O)N[C@@H](C)C(=O)N[C@@H](Cc2ccc(O)cc2)C(=O)N[C@@H](Cc2c[nH]c3ccccc23)C(=O)N[C@@H](C)C(=O)N[C@@H](CCC(N)=O)C(=O)N[C@@H](CC(C)C)C(=O)N1)C(N)=O [compound 5] (Ac-LTF[R8]AYWAQL[S5]SAM-NH2; staple 4-11) | < 5 | – | – | – | – | – | – | – | –
CC(=O)N[C@@H](CC(C)C)C(=O)N[C@H](C(=O)N[C@@H](Cc1ccccc1)C(=O)N[C@]1(C)CCCCCCCCCCC[C@@](C)(C(=O)N[C@@H](C)C(=O)N[C@@H](C)C(=O)N[C@@H](C)C(=O)N[C@@H](C)C(=O)N[C@@H](C)C(=O)N[C@H](C)C(N)=O)NC(=O)[C@H](CC(C)C)NC(=O)[C@H](CCC(N)=O)NC(=O)[C@H](C)NC(=O)[C@H](Cc2c[nH]c3ccccc23)NC(=O)[C@H](Cc2ccc(O)cc2)NC(=O)[C@H](CCC(=O)O)NC1=O)[C@@H](C)O [compound 445] | 5 to 15 | – | – | – | – | – | – | – | –
CC(=O)N[C@@H](CC(C)C)C(=O)N[C@H](C(=O)N[C@@H](Cc1ccccc1)C(=O)N[C@]1(C)CCCCCCC=CCCC[C@@](C)(C(=O)N[C@@H](CO)C(=O)N[C@@H](C)C(=O)N[C@@H](C)C(N)=O)NC(=O)[C@H](CC2CCC2)NC(=O)[C@H](CCC(N)=O)NC(=O)[C@H](C)NC(=O)[C@H](Cc2c[nH]c3ccccc23)NC(=O)[C@H](Cc2ccc(O)cc2)NC(=O)[C@H](CCC(=O)O)NC1=O)[C@@H](C)O (single isomer, unassigned) [compound 153] | – | 2 | 10 | 15 | 20 | 4 | 2 | 3 | –
CC[C@H](C)[C@H](NC(C)=O)C(=O)N[C@H](C(=O)N[C@@H](Cc1ccccc1)C(=O)N[C@]1(C)CCCCCCC=CCCC[C@@](C)(C(=O)N[C@@H](C)C(=O)N[C@@H](C)C(=O)N[C@H](C(=O)N[C@H](C)C(N)=O)[C@@H](C)CC)NC(=O)[C@H](CC(C)C)NC(=O)[C@H](CCC(N)=O)NC(=O)[C@H](C(C)C)NC(=O)[C@H](Cc2c[nH]c3ccccc23)NC(=O)[C@H](Cc2ccc(O)cc2)NC(=O)[C@H](Cc2ccccc2)NC1=O)[C@@H](C)O [compound 177] (Ac-ITF[R8]FYWVQL[S5]AAI[dA]-NH2; staple 4-11) | – | 1 | 1 | 8 | 20 | −1 | 0 | 1 | –
CC(=O)N[C@@H](CC(C)C)C(=O)N[C@H](C(=O)N[C@@H](Cc1ccccc1)C(=O)N[C@]1(C)CCCCCCC=CCCC[C@@](C)(C(=O)N[C@@H](C)C(=O)N[C@@H](Cc2c[nH]cn2)C(=O)N[C@@H](Cc2ccccc2)C(=O)N[C@@H](C)C(N)=O)NC(=O)[C@H](CC(C)C)NC(=O)[C@H](C)NC(=O)[C@H](C)NC(=O)[C@H](Cc2c[nH]c3ccccc23)NC(=O)[C@H](Cc2ccc(O)cc2)NC(=O)[C@H](C)NC1=O)[C@@H](C)O [compound 204] (Ac-LTF[R8]AYWAAL[S5]AHFA-NH2; staple 4-11) | – | 1 | 4 | 10 | 10 | 4 | 2 | 0 | –
CC(=O)N[C@@H](CC(C)C)C(=O)N[C@H](C(=O)N[C@@H](Cc1ccccc1)C(=O)N[C@]1(C)CCCCCCC=CCCC[C@@](C)(C(=O)N[C@@H](CO)C(=O)N[C@H](C(=O)NCC(N)=O)C(C)C)NC(=O)[C@H](CC(C)C)NC(=O)[C@H](CCC(N)=O)NC(=O)[C@H](C)NC(=O)[C@H](Cc2c[nH]c3ccccc23)NC(=O)[C@H](Cc2ccc(O)cc2)NC(=O)[C@H](C)NC1=O)[C@@H](C)O [compound 123] (Ac-LTF[R8]AYWAQL[S5]SVG-NH2; staple 4-11) | – | 1 | 1 | 6 | 14 | −2 | 5 | 3 | –
CCCC[C@H](NC(=O)[C@H](C)NC(=O)[C@H](C)NC(=O)[C@]1(C)CCCC=CCCCCCC[C@@](C)(NC(=O)[C@H](Cc2ccccc2)NC(=O)[C@@H](NC(=O)[C@H](CC(C)C)NC(C)=O)[C@@H](C)O)C(=O)N[C@@H](C)C(=O)N[C@@H](Cc2ccc(O)cc2)C(=O)N[C@@H](Cc2c[nH]c3ccccc23)C(=O)N[C@@H](C)C(=O)N[C@@H](C)C(=O)N[C@@H](CC(C)C)C(=O)N1)C(=O)N[C@@H](C(N)=O)C(C)C (single isomer, unassigned) [compound 80] | – | 1 | 2 | 13 | 20 | 0 | 1 | 5 | –
CC(=O)N[C@@H](CC(C)C)C(=O)N[C@H](C(=O)N[C@@H](Cc1ccccc1)C(=O)N[C@]1(C)CCCCCCC=CCCC[C@@](C)(C(=O)N[C@@H](CO)C(=O)NC(C)(C)C(=O)N[C@@H](C)C(=O)N[C@@H](C)C(N)=O)NC(=O)[C@H](CC(C)C)NC(=O)[C@H](CCC(N)=O)NC(=O)[C@H](C)NC(=O)[C@H](Cc2c[nH]c3ccccc23)NC(=O)[C@H](Cc2ccc(O)cc2)NC(=O)[C@H](C)NC1=O)[C@@H](C)O (single isomer, unassigned) [compound 26] | – | 1 | 1 | 3 | 14 | 2 | −1 | 0 | –
CCCC[C@H](NC(=O)[C@H](C)NC(=O)[C@H](CO)NC(=O)[C@]1(C)CCCC=CCCCCCC[C@@](C)(NC(=O)[C@H](Cc2ccccc2)NC(=O)[C@@H](NC(=O)[C@H](CC(C)C)NC(C)=O)[C@@H](C)O)C(=O)N[C@@H](CCC(=O)O)C(=O)N[C@@H](Cc2ccc(C(=O)O)cc2)C(=O)N[C@@H](Cc2c[nH]c3ccccc23)C(=O)N[C@@H](C)C(=O)N[C@@H](CCC(N)=O)C(=O)N[C@@H](CC2CCC2)C(=O)N1)C(=O)N[C@@H](C)C(N)=O [compound 244] (Ac-LTF[R8]E[Phe(4-COOH)]WAQ[Cba][S5]SA[Nle]A-NH2; staple 4-11) | – | 1 | 2 | 7 | 17 | 0 | 0 | 4 | –
CC(=O)N[C@@H](CC(C)C)C(=O)N[C@H](C(=O)N[C@@H](Cc1ccccc1)C(=O)N[C@]1(C)CCCCCCC=CCCC[C@@](C)(C(=O)N[C@@H](C)C(=O)N[C@@H](C)C(=O)N[C@@H](C)C(=O)N[C@@H](C)C(=O)N[C@@H](C)C(=O)N[C@@H](C)C(=O)N[C@H](C)C(N)=O)NC(=O)[C@H](CC(C)C)NC(=O)[C@H](CCC(N)=O)NC(=O)[C@H](C)NC(=O)[C@H](Cc2c[nH]c3ccccc23)NC(=O)[C@H](Cc2ccc(O)cc2)NC(=O)[C@H](C)NC1=O)[C@@H](C)O (single isomer, unassigned) [compound 317] | – | 3 | 9 | 26 | 35 | 0 | 0 | 0 | 4
CC(=O)N[C@@H](CC(C)C)C(=O)N[C@H](C(=O)N[C@@H](Cc1ccccc1)C(=O)N[C@]1(C)CCCCCCC=CCCC[C@@](C)(C(=O)N[C@@H](CO)C(=O)N[C@H](C(=O)N[C@@H](CO)C(N)=O)C(C)C)NC(=O)[C@H](CC(C)C)NC(=O)[C@H](CCC(N)=O)NC(=O)[C@H](C)NC(=O)[C@H](Cc2c[nH]c3ccccc23)NC(=O)[C@H](Cc2ccc(O)cc2)NC(=O)[C@H](C(C)C)NC1=O)[C@@H](C)O (single isomer, unassigned) [compound 142] | – | 1 | 2 | 15 | 20 | 1 | 1 | 3 | –
CCCC[C@H](NC(=O)[C@H](C)NC(=O)[C@H](C)NC(=O)[C@]1(C)CCCC=CCCCCCC[C@@](C)(NC(=O)[C@H](Cc2ccccc2)NC(=O)[C@@H](NC(=O)[C@H](CCC(=O)O)NC(C)=O)[C@@H](C)O)C(=O)N[C@@H](C)C(=O)N[C@@H](Cc2ccc(O)cc2)C(=O)N[C@@H](Cc2c[nH]c3ccccc23)C(=O)N[C@@H](C)C(=O)N[C@@H](CCC(N)=O)C(=O)N[C@@H](CC2CCC2)C(=O)N1)C(=O)N[C@@H](C)C(N)=O [compound 237] (Ac-ETF[R8]AYWAQ[Cba][S5]AA[Nle]A-NH2; staple 4-11) | – | 1 | 5 | 9 | 15 | 0 | 7 | 55 | –
